Reference: paper PMC12733323, “Novel Mono-Substituted 4H-1,2,6-Thiadiazines with Antioxidant and Anti-Lipoxygenase Activities” (International Journal of Molecular Sciences, 2025)
Like-named read-outs stand apart in the source and are kept apart here.

Columns and labels:
[1] = Interaction with the stable free radical DPPH (reducing activity)
Description: The synthesized derivatives were tested for their interaction with the stable free radical 2,2-diphenyl-1-picrylhydrazyl (DPPH) at a concentration of 100 μM after 20 and 60 min (Table 4). DPPH is widely used as a standard method for evaluating antioxidant activity. […] However, lipophilic compounds typically dissolve efficiently in organic solvents when they react with DPPH. The relationship between antioxidant activity and lipophilicity was reported in previous studies.
In vitro assays were carried out to evaluate the reducing activity of the novel derivatives against the DPPH stable radical. Free radical scavenging activity was determined by measuring absorbance at 517 nm after 20 and 60 min at room temperature. NDGA served as the reference compound. (Table 4).

soybean lipoxygenase = target: T1, soybean lipoxygenase (Glycine max, UniProt P08170); experiment: Inhibition of soybean lipoxygenase; format: biochemical; settings: for inhibition at 100 µM: read-out: LOX % Inhibition 100 μM
T1 sequence (P08170 1-839): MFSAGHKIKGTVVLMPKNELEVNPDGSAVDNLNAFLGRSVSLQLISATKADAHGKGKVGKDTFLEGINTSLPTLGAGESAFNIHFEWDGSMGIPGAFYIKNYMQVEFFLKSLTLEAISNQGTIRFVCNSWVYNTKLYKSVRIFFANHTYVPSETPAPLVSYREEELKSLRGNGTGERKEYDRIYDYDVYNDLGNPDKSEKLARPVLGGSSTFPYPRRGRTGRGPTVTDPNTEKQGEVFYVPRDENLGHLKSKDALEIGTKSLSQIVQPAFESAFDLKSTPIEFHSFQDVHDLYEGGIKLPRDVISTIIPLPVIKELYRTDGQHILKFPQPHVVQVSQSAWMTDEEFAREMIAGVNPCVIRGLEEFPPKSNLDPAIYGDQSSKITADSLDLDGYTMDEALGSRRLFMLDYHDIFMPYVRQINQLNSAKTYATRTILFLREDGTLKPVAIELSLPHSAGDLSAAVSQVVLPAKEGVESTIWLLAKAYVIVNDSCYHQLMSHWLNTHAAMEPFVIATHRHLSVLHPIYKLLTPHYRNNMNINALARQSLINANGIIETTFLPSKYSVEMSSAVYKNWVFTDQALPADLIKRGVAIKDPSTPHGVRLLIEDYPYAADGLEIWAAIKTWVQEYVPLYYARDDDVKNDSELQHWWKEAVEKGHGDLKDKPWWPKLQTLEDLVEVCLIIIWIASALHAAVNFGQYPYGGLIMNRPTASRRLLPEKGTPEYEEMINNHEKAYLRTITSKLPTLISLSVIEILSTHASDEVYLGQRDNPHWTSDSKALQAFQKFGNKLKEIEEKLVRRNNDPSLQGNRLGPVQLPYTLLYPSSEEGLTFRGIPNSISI
Description: Lipoxygenase (LOX) plays a key role in the formation of leukotrienes, which are important inflammatory mediators. Leukotrienes are considered key therapeutic targets in inflammatory diseases due to their role. Soybean lipoxygenase (LOX), a plant-based enzyme, has long been used as a model system to study the structural and functional characteristics of the lipoxygenase family due to its significant homology with human 5-LOX [39].
Sodium linoleate (0.1 mM), 0.2 mL of soybean lipoxygenase solution (1/9 × 10^−4 w/v in saline), and 10 μL of the test compound stock solution (10 mM in DMSO) were incubated at room temperature. The formation of 13-hydroperoxy-linoleic acid was monitored by measuring absorbance at 234 nm. […] A couple of concentrations of the test compounds were used to calculate the IC50 values.

[2] = Inhibition of AAPH-induced linoleic acid peroxidation
From the text: In the lipid peroxidation assay, sodium linoleate was used as the substrate, while 2,2′-azobis(2-methylpropionamidine) dihydrochloride (AAPH) was the peroxyl radical initiator. The formation of 13-hydroperoxy-linoleic acid from linoleic acid was observed by UV-Vis absorption measurements at 234 nm. Trolox was used as a reference compound.
AAPH was used as an alkyl peroxyl radical inducer. In this experiment, the compounds’ ability to prevent linoleic acid oxidation by alkyl peroxyl radicals through absorbance changes at 234nm was evaluated, corresponding to the production of 13-hydroperoxy-linoleic acid. Trolox was used as the reference compound.

| SMILES | inhibition at 100 µM (soybean lipoxygenase) [%] | IC50 (soybean lipoxygenase; read-out: LOX IC50) [µM] | RA%, DPPH, 20 min (100 µM) [1] | RA%, DPPH, 60 min (100 µM) [1] | IC50 (soybean lipoxygenase) [µM] | %AAPH (100 µM) [2] | RA%, DPPH, 60 min (100 µM) ([1]; listed as ΝDGA) [%] |
| --- | --- | --- | --- | --- | --- | --- | --- |
| O=c1c(Cl)nsnc1N1CCN(c2ccccc2)CC1 [Compound 9a, 3-Chloro-5-(4-phenylpiperazin-1-yl)-4H-1,2,6-thiadiazin-4-one] |  |  | 7% | 6% | 7.5 | 15% |  |
| O=c1c(Cl)nsnc1N1CCN(C(c2ccccc2)c2ccccc2)CC1 [Compound 9b, 3-(4-Benzhydrylpiperazin-1-yl)-5-chloro-4H-1,2,6-thiadiazin-4-one] |  |  | 2% | 2% | 55 | 20% |  |
| N#CC(C#N)=C1C(Cl)=NSN=C1N1CCN(c2ccccc2)CC1 [Compound 10a, 2-[3-Chloro-5-(4-phenylpiperazin-1-yl)-4H-1,2,6-thiadiazin-4-ylidene]malononitrile] | 46 |  | 16% | 15% |  | 27% |  |
| N#CC(C#N)=C1C(Cl)=NSN=C1N1CCN(C(c2ccccc2)c2ccccc2)CC1 [Compound 10b, 2-[3-(4-Benzhydrylpiperazin-1-yl)-5-chloro-4H-1,2,6-thiadiazin-4-ylidene]malononitrile] |  | 67.5 | no | no |  | No |  |
| O=c1c(Cl)nsnc1Sc1nc2ccccc2o1 [Compound 11c, 3-(Benzo[d]oxazol-2-ylthio)-5-chloro-4H-1,2,6-thiadiazin-4-one] |  |  | 21% | 22% | 77.5 | 5% |  |
| CC(=O)Nc1ccc(Sc2nsnc(Cl)c2=O)cc1 [Compound 11d, N-{4-[(5-Chloro-4-oxo-4H-1,2,6-thiadiazin-3-yl)thio]phenyl}acetamide] |  |  | 1% | 2% | 85 | 43% |  |
| Cn1cnnc1Sc1nsnc(Cl)c1=O [Compound 11f, 3-Chloro-5-[(4-methyl-4H-1,2,4-triazol-3-yl)thio]-4H-1,2,6-thiadiazin-4-one] |  |  | 10% | 12% | 52.5 | 7% |  |
| CCOc1ccc2nc(Sc3nsnc(Cl)c3=O)sc2c1 [Compound 11i, 3-Chloro-5-[(6-ethoxybenzo[d]thiazol-2-yl)thio]-4H-1,2,6-thiadiazin-4-one] |  |  | 3% | no | 67.5 | No |  |
| Cn1nnnc1SC1=NSN=C(Cl)C1=C(C#N)C#N [Compound 12b, 2-{3-Chloro-5-[(1-methyl-1H-tetrazol-5-yl)thio]-4H-1,2,6-thiadiazin-4-ylidene}malononitrile] |  |  | 27% | 36% | 75 | No |  |
| CC(Cc1ccc(O)c(O)c1)C(C)Cc1ccc(O)c(O)c1 (centres unmarked) [NDGA, Nordihydroguaiaretic acid, reference compound] |  |  | 87% | 87% |  |  | 93 |
| Cc1c(C)c2c(c(C)c1O)CCC(C)(C(=O)O)O2 (centres unmarked) [Trolox, reference compound] |  |  |  |  |  | 93% |  |

The next lines start with results.

| inhibition at 100 µM (soybean lipoxygenase) [%] | IC50 (soybean lipoxygenase; read-out: LOX IC50) [µM] | SMILES | RA%, DPPH, 20 min (100 µM) [1] | RA%, DPPH, 60 min (100 µM) [1] | IC50 (soybean lipoxygenase) [µM] | %AAPH (100 µM) [2] | RA%, DPPH, 60 min (100 µM) ([1]; listed as ΝDGA) [%] |
| --- | --- | --- | --- | --- | --- | --- | --- |
| 31 |  | Cc1ccnc(Sc2nsnc(Cl)c2=O)n1 [Compound 11a, 3-Chloro-5-[(4-methylpyrimidin-2-yl)thio]-4H-1,2,6-thiadiazin-4-one] | 2% | no |  | No |  |
| 44 |  | Cn1nnnc1Sc1nsnc(Cl)c1=O [Compound 11b, 3-Chloro-5-[(1-methyl-1H-tetrazol-5-yl)thio]-4H-1,2,6-thiadiazin-4-one] | 3% | 3% |  | 45% |  |
| 50 |  | O=c1c(Cl)nsnc1Sc1nnnn1-c1ccccc1 [Compound 11e, 3-Chloro-5-[(1-phenyl-1H-tetrazol-5-yl)thio]-4H-1,2,6-thiadiazin-4-one] | 15% | 17% |  | No |  |
| 40 |  | O=c1c(Cl)nsnc1Sc1nccs1 [Compound 11g, 3-Chloro-5-(thiazol-2-ylthio)-4H-1,2,6-thiadiazin-4-one] | 10% | 7% |  | No |  |
| 33 |  | O=c1c(Cl)nsnc1Sc1nc2ccccc2s1 [Compound 11h, 3-(benzo[d]thiazol-2-ylthio)-5-chloro-4H-1,2,6-thiadiazin-4-one] | 8% | 1% |  | No |  |
| 41 |  | Cc1ccnc(SC2=NSN=C(Cl)C2=C(C#N)C#N)n1 [Compound 12a, 2-{3-Chloro-5-[(4-methylpyrimidin-2-yl)thio]-4H-1,2,6-thiadiazin-4-ylidene}malononitrile] | 82% | 90% |  | 18% |  |
| 27 |  | N#CC(C#N)=C1C(Cl)=NSN=C1Sc1nc2ccccc2o1 [Compound 12c, 2-[3-(Benzo[d]oxazol-2-ylthio)-5-chloro-4H-1,2,6-thiadiazin-4-ylidene]malononitrile] | 89% | 92% |  | 70% |  |
